Measurements published in patent publication US5011825A, “Peptides influencing diuresis and natriuresis, a process for their preparation, agents containing them, and their use” (Hoechst Aktiengesellschaft, priority 1986, dated 1991).
Where a SMILES comes first, the peptide text is derived from it. [ ]: non-standard residue; d: D form. The star is where a group is joined. d(aIle) = CC[C@H](C)[C@@H](N)C(=O)O; Leu(ol) = CC(C)C[C@H](N)CO; code Z = not defined here; Cbz = O=C(OCc1ccccc1)*; OBn = c1ccc(CO*)cc1; OtBu = CC(C)(C)O*; tBu = CC(C)(C)*

Key:
[1] = tested on: rat; experiment: Diuretic, natriuretic and kaliuretic action, Experimental Design 1 (anesthetized rats, continuous NaCl infusion, i.v. bolus); format: in vivo; conditions: for Urine / K^+ / Na^+: dose 1 mg/kg rat i.v. bolus, collection period 90 min; for Urine: control 1.267; for K^+: control 29.5; for Na^+: control 65.2
Method: A. […]
Experimental Design 1: The rats were anesthetized with 0.1 ml of 10% strength thiobutabarbital sodium/100 g of body weight i.p. They received an NaCl infusion from 60 min before administration of the substance and continuing during the experiment (2.5 ml of a 0.9% strength NaCl solution .h^-1.0.1 kg^-1 body weight). The test substance was administered as an i.v. bolus in 0.5 ml of a 0.9% strength solution/100 g of body weight.

[2] = tested on: rat; experiment: Diuretic, natriuretic and kaliuretic action, Experimental Design 2 (anesthetized rats, stepwise halved NaCl infusion, i.v. bolus); format: in vivo; conditions: dose 1 mg/kg rat i.v. bolus, collection period 120 min; for Urine: control 0.520; for K^+: control 25.8; for Na^+: control 31.5
Method: B. Diuretic, natruiuretic and kaliuretic action of the peptides according to the invention in Experimental Design 2 (dose: 1 mg/kg rat, colection period: 120 min.)
Experimental Design 2: The rats were anesthetized with 0.1 ml of 10% strength thiobutabarbital sodium/100 g of body weight i.p. They received an NaCl infusion from 60 min before administration of the substance up to administration of the substance (2.5 ml of a 0.85% strength NaCl solution .h^-1.0.1 kg^-1 body weight). After ad
ministration of the substance, the infusion rate was halved for one hour (1.25 ml.h^-1.0.1 kg^-1) Thereafter the infusion rate was again halved up to the end of the experiment (0.625 ml.h^1.0.1 kg^-1). The test substance was administered as i.v. bolus in 0.1 ml of a 0.85% strength NaCl solution/100 g of body weight.

Molecule: CC[C@H](C)[C@H](NC(=O)[C@H](CCCNC(=N)N)NC(=O)[C@H](Cc1c[nH]c2ccccc12)NC(=O)[C@@H](NC(=O)[C@H](CCCNC(=N)N)NC(=O)OCc1ccccc1)[C@@H](C)CC)C(=O)O [Z-Arg-Ile-Trp-Arg-Ile-OH] (Cbz-RIWRI-OH)
- Urine [1]: 1.64 mL/kg
- K^+ [1]: 37.1 µmol/kg
- Na^+ [1]: 208.6 µmol/kg

Molecule: H-RILRI-OH [H-Arg-Ile-Leu-Arg-Ile-OH]
- Urine [1]: 2.03 mL/kg
- K^+ [1]: 50.1 µmol/kg
- Na^+ [1]: 149.8 µmol/kg

Molecule: Z-D-Arg-Ile-Leu-Arg-Ile-OBzl ({code Z}-[dR]ILRI-OBn; reading uncertain; also: printed as Z-D-Arg-Ile-Leu-Arg-Ile-OBzl)
- Urine [2]: 0.59 mL/kg
- K^+ [2]: 38.1 µmol/kg
- Na^+ [2]: 86.3 µmol/kg

Molecule: CC[C@H](C)[C@H](NC(=O)[C@@H](N)CCCNC(=N)N)C(=O)N[C@@H](COC(C)(C)C)C(=O)N[C@@H](CCCNC(=N)N)C(=O)N1CCC[C@H]1C(=O)OC(C)(C)C [H-Arg-Ile-Ser(tBu)-Arg-Pro-OtBu] (H-RIS(tBu)RP-OtBu)
- Urine [2]: 0.63 mL/kg
- K^+ [2]: 31.5 µmol/kg
- Na^+ [2]: 136.8 µmol/kg

Molecule: Cbz-[dR]IL[dR]I-OBn
- Urine [2]: 0.29 mL/kg
- K^+ [2]: 30.1 µmol/kg
- Na^+ [2]: 48.4 µmol/kg

Molecule: CC[C@H](C)[C@H](NC(=O)[C@H](CCCNC(=N)N)NC(=O)[C@H](COC(C)(C)C)NC(=O)[C@@H](NC(=O)[C@@H](N)CCCNC(=N)N)[C@@H](C)CC)C(=O)O [H-Arg-Ile-Ser(tBu)-Arg-Ile-OH] (H-RIS(tBu)RI-OH)
- Urine [1]: 1.19 mL/kg
- K^+ [1]: 28.4 µmol/kg
- Na^+ [1]: 74.5 µmol/kg

Molecule: H-RIFRI-OH [H-Arg-Ile-Phe-Arg-Ile-OH]
- Urine [1]: 2.00 mL/kg
- K^+ [1]: 68.3 µmol/kg
- Na^+ [1]: 211.0 µmol/kg

Molecule: Cbz-RID(OtBu)RI-NH2
- Urine [1]: 1.51 mL/kg
- K^+ [1]: 63.3 µmol/kg
- Na^+ [1]: 263.2 µmol/kg

Molecule: CC[C@H](C)[C@H](NC(=O)[C@H](CCCNC(=N)N)NC(=O)[C@@H](COC(C)(C)C)NC(=O)[C@@H](NC(=O)[C@@H](N)CCCNC(=N)N)[C@@H](C)CC)C(=O)O [H-Arg-Ile-D-Ser(tBu)-Arg-Ile-OH] (H-RI[dS](tBu)RI-OH)
- Urine [1]: 0.95 mL/kg
- K^+ [1]: 44.3 µmol/kg
- Na^+ [1]: 87.0 µmol/kg

Molecule: Cbz-[dR]I[dL]RI-OBn
- Urine [2]: 0.19 mL/kg
- K^+ [2]: 20.4 µmol/kg
- Na^+ [2]: 37.3 µmol/kg

Molecule: Z-Arg-Ile-Trp-Arg-Ile-OMe ({code Z}-RIWRI-OMe; reading uncertain; also: printed as Z-Arg-Ile-Trp-Arg-Ile-OMe)
- Urine [1]: 1.16 mL/kg
- K^+ [1]: 46.2 µmol/kg
- Na^+ [1]: 152.5 µmol/kg

Molecule: CC[C@H](C)[C@H](NC(=O)[C@H](CCCNC(=N)N)NC(=O)OCc1ccccc1)C(=O)N[C@@H](CC(C)C)C(=O)N[C@@H](CCCNC(=N)N)C(=O)N[C@@H](C(=O)OCc1ccccc1)C(C)C [Z-Arg-Ile-Leu-Arg-D-Val-OBzl] (Cbz-RILR[dV]-OBn)
- Urine [2]: 0.43 mL/kg
- K^+ [2]: 36.7 µmol/kg
- Na^+ [2]: 88.6 µmol/kg

Molecule: H-KFLKF-OH [H-Lys-Phe-Leu-Lys-Phe-OH]
- Urine [2]: 0.52 mL/kg
- K^+ [2]: 31.0 µmol/kg
- Na^+ [2]: 80.2 µmol/kg

Molecule: H-RID(OtBu)R[Leu(ol)]
- Urine [1]: 1.55 mL/kg
- K^+ [1]: 64.2 µmol/kg
- Na^+ [1]: 180.8 µmol/kg

Molecule: CC[C@H](C)[C@H](NC(=O)[C@H](CCCNC(=N)N)NC(=O)[C@@H](CC(C)C)NC(=O)[C@H](NC(=O)[C@H](N)CCCNC(=N)N)[C@@H](C)CC)C(=O)O [H-D-Arg-D-allo-Ile-D-Leu-Arg-Ile-OH] (H-[dR][d(aIle)][dL]RI-OH)
- Urine [2]: 0.87 mL/kg
- K^+ [2]: 35.5 µmol/kg
- Na^+ [2]: 95.1 µmol/kg

Molecule: H-RPVKV-OH [H-Arg-Pro-Val-Lys-Val-OH]
- Urine [1]: 0.91 mL/kg
- K^+ [1]: 28.2 µmol/kg
- Na^+ [1]: 155.7 µmol/kg
- Type of action on diuresis, natriuresis and kaliuresis (in words) ([1]; judged from the data against control): potassium-retaining natriuretics

Molecule: H-RIWRI-OH [H-Arg-Ile-Trp-Arg-Ile-OH]
- Urine [1]: 0.67 mL/kg
- K^+ [1]: 57.5 µmol/kg
- Na^+ [1]: 112.8 µmol/kg

Molecule: CC[C@H](C)[C@H](NC(=O)[C@@H](CCCNC(=N)N)NC(=O)[C@H](CC(C)C)NC(=O)[C@@H](NC(=O)[C@@H](N)CCCNC(=N)N)[C@@H](C)CC)C(=O)O [H-Arg-Ile-Leu-D-Arg-Ile-OH] (H-RIL[dR]I-OH)
- Urine [2]: 0.78 mL/kg
- K^+ [2]: 40.8 µmol/kg
- Na^+ [2]: 93.7 µmol/kg

Molecule: H-KFLKF-NH2 [H-Lys-Phe-Leu-Lys-Phe-NH2]
- Urine [2]: 0.25 mL/kg
- K^+ [2]: 16.7 µmol/kg
- Na^+ [2]: 36.8 µmol/kg

Molecule: CC[C@H](C)[C@H](NC(=O)[C@H](CCCNC(=N)N)NC(=O)[C@@H](CC(C)C)NC(=O)[C@@H](NC(=O)[C@H](N)CCCNC(=N)N)[C@@H](C)CC)C(=O)O [H-D-Arg-Ile-D-Leu-Arg-Ile-OH] (H-[dR]I[dL]RI-OH)
- Urine [2]: 1.13 mL/kg
- K^+ [2]: 49.7 µmol/kg
- Na^+ [2]: 115.9 µmol/kg

Molecule: CC[C@H](C)[C@H](NC(=O)[C@H](CCCNC(=N)N)NC(=O)OCc1ccccc1)C(=O)N[C@@H](COC(C)(C)C)C(=O)N[C@@H](CCCNC(=N)N)C(=O)N1CCC[C@H]1C(=O)OC(C)(C)C [Z-Arg-Ile-Ser(tBu)-Arg-Pro-OtBu] (Cbz-RIS(tBu)RP-OtBu)
- Urine [2]: 0.44 mL/kg
- K^+ [2]: 37.8 µmol/kg
- Na^+ [2]: 88.9 µmol/kg

Molecule: CC[C@H](C)[C@H](NC(=O)[C@@H](N)CCCNC(=N)N)C(=O)N[C@@H](CC(C)C)C(=O)N[C@@H](CCCNC(=N)N)C(=O)N[C@@H](C(=O)O)C(C)C [H-Arg-Ile-Leu-Arg-D-Val-OH] (H-RILR[dV]-OH)
- Urine [2]: 0.56 mL/kg
- K^+ [2]: 38.9 µmol/kg
- Na^+ [2]: 68.8 µmol/kg

Molecule: CC[C@H](C)[C@H](NC(=O)[C@H](CCCNC(=N)N)NC(=O)[C@H](CC(C)C)NC(=O)[C@@H](NC(=O)[C@H](N)CCCNC(=N)N)[C@@H](C)CC)C(=O)O [H-D-Arg-Ile-Leu-Arg-Ile-OH] (H-[dR]ILRI-OH)
- Urine [2]: 0.22 mL/kg
- K^+ [2]: 33.6 µmol/kg
- Na^+ [2]: 55.3 µmol/kg

Molecule: CC[C@H](C)[C@H](NC(=O)[C@H](CCCNC(=N)N)NC(=O)[C@H](CC(C)C)NC(=O)[C@H](NC(=O)[C@@H](N)CCCNC(=N)N)C(C)C)C(=O)O [H-Arg-D-Val-Leu-Arg-Ile-OH] (H-R[dV]LRI-OH)
- Urine [2]: 0.57 mL/kg
- K^+ [2]: 34.9 µmol/kg
- Na^+ [2]: 83.77 µmol/kg

Molecule: CC[C@H](C)[C@H](NC(=O)[C@@H](CCCNC(=N)N)NC(=O)[C@H](CC(C)C)NC(=O)[C@@H](NC(=O)[C@H](N)CCCNC(=N)N)[C@@H](C)CC)C(=O)O [H-D-Arg-Ile-Leu-D-Arg-Ile-OH] (H-[dR]IL[dR]I-OH)
- Urine [2]: 0.28 mL/kg
- K^+ [2]: 33.9 µmol/kg
- Na^+ [2]: 61.4 µmol/kg

Molecule: CC[C@H](C)[C@H](NC(=O)[C@@H](N)CCCNC(=N)N)C(=O)N[C@H](CC(C)C)C(=O)N[C@@H](CCCNC(=N)N)C(=O)N[C@@H](C(=O)O)C(C)C [H-Arg-Ile-D-Leu-Arg-D-Val-OH] (H-RI[dL]R[dV]-OH)
- Urine [2]: 0.31 mL/kg
- K^+ [2]: 32.8 µmol/kg
- Na^+ [2]: 68.4 µmol/kg

Molecule: Z-Arg-I-le-Glu(OtBu)-Arg-Ile-NH2 [Z-Arg-Ile-Glu(OtBu)-Arg-Ile-NH2]
- Urine [2]: 0.47 mL/kg
- K^+ [2]: 36.1 µmol/kg
- Na^+ [2]: 91.5 µmol/kg

Molecule: CC[C@H](C)[C@H](NC(=O)[C@H](CCCNC(=N)N)NC(=O)OCc1ccccc1)C(=O)N[C@@H](CC(C)C)C(=O)N[C@H](CCCNC(=N)N)C(=O)N[C@H](C(=O)OCc1ccccc1)[C@@H](C)CC [Z-Arg-Ile-Leu-D-Arg-Ile-OBzl] (Cbz-RIL[dR]I-OBn)
- Urine [2]: 0.52 mL/kg
- K^+ [2]: 36.2 µmol/kg
- Na^+ [2]: 66.9 µmol/kg

Molecule: CC(C)C[C@H](NC(=O)[C@H](NC(=O)[C@H](CCCNC(=N)N)NC(=O)OCc1ccccc1)C(C)C)C(=O)N[C@@H](CCCNC(=N)N)C(=O)N[C@@H](C(=O)OCc1ccccc1)C(C)C [Z-Arg-D-Val-Leu-Arg-D-Val-OBzl] (Cbz-R[dV]LR[dV]-OBn)
- Urine [2]: 0.27 mL/kg
- K^+ [2]: 38.3 µmol/kg
- Na^+ [2]: 55.1 µmol/kg

Molecule: H-RLQRL-OH [H-Arg-Leu-Gln-Arg-Leu-OH, H-Arg-Leu-Gln-Arg-Leu--OH]
- Urine [2]: 0.25 mL/kg
- K^+ [2]: 23.7 µmol/kg
- Na^+ [2]: 30.2 µmol/kg

Molecule: CC[C@H](C)[C@H](NC(=O)[C@H](CCCNC(=N)N)NC(=O)OCc1ccccc1)C(=O)N[C@H](CC(C)C)C(=O)N[C@@H](CCCNC(=N)N)C(=O)N[C@@H](C(=O)OCc1ccccc1)C(C)C [Z-Arg-Ile-D-Leu-Arg-D-Val-OBzl] (Cbz-RI[dL]R[dV]-OBn)
- Urine [2]: 0.48 mL/kg
- K^+ [2]: 43.8 µmol/kg
- Na^+ [2]: 79.0 µmol/kg
